In the kinase profiling compilation of Christmann-Franck et al. (2016):
Blank lines part the entries; values can stand above or below the compound they belong to.

Assays:
DCLK1 (human) = DCLK1 (human) (UniProt O15075); test: KINOMEscan competition binding; conditions: compound 10.0 µM
INSRR (human) = INSRR (human) (UniProt P14616); test: KINOMEscan competition binding; conditions: compound 10.0 µM
RPS6KA1 KD2 (human) = RPS6KA1 KD2 (human) (UniProt Q15418); test: KINOMEscan competition binding; conditions: compound 10.0 µM
STK33 (human) = STK33 (human) (UniProt Q9BYT3); test: KINOMEscan competition binding; conditions: compound 10.0 µM
PLK3 (human) = PLK3 (human) (UniProt Q9H4B4); test: KINOMEscan competition binding; conditions: compound 10.0 µM
INSR (human) = INSR (human) (UniProt P06213); test: KINOMEscan competition binding; conditions: compound 10.0 µM
PLK1 (human) = PLK1 (human) (UniProt P53350); test: KINOMEscan competition binding; conditions: compound 10.0 µM
MYLK (human) = MYLK (human) (UniProt Q15746); test: KINOMEscan competition binding; conditions: compound 10.0 µM
PTK2B (human) = PTK2B (human) (UniProt Q14289); test: KINOMEscan competition binding; conditions: compound 10.0 µM
PLK4 (human) = PLK4 (human) (UniProt O00444); test: KINOMEscan competition binding; conditions: compound 10.0 µM
PLK4 (human), sequence (O00444 whole entry, looked up): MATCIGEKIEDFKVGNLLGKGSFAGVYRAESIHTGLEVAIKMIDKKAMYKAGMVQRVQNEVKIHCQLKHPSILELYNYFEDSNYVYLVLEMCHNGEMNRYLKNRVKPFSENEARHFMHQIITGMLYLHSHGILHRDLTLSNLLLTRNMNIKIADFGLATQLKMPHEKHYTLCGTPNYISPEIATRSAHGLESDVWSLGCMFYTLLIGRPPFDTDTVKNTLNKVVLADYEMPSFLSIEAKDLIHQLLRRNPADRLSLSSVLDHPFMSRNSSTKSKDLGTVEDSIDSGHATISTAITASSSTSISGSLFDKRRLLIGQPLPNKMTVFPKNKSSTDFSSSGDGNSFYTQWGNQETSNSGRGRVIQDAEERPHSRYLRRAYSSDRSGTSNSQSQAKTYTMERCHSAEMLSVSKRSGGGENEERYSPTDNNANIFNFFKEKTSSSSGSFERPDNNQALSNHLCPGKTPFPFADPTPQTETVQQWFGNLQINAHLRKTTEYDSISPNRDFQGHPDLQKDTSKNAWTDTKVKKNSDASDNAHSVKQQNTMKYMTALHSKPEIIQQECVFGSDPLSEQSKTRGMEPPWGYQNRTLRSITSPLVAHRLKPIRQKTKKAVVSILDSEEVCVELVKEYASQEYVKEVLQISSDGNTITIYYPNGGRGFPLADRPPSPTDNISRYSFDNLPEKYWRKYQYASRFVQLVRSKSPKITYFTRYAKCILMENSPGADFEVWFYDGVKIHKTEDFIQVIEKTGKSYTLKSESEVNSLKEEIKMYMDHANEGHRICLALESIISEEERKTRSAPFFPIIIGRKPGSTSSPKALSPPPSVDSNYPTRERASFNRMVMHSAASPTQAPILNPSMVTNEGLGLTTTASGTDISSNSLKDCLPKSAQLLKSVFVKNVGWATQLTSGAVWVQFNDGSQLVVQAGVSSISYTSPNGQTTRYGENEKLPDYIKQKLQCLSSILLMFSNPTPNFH

RPS6KA6 KD2 (human) = RPS6KA6 KD2 (human) (UniProt Q9UK32); test: KINOMEscan competition binding; conditions: compound 10.0 µM
ALK (human) = ALK (human) (UniProt Q9UM73); test: KINOMEscan competition binding; conditions: compound 10.0 µM
DAPK2 (human) = DAPK2 (human) (UniProt Q9UIK4); test: KINOMEscan competition binding; conditions: compound 10.0 µM
DAPK2 (human), sequence (Q9UIK4 whole entry, looked up): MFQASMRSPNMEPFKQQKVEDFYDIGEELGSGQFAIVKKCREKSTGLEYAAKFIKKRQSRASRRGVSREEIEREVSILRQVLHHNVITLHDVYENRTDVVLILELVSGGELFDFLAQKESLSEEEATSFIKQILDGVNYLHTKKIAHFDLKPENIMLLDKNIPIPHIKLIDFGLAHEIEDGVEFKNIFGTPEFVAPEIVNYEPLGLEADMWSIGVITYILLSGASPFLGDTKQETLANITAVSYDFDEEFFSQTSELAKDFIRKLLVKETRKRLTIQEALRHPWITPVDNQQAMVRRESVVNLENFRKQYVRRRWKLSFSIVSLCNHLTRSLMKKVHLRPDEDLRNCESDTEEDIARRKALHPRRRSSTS

GAK (human) = GAK (human) (UniProt O14976); test: KINOMEscan competition binding; conditions: compound 10.0 µM
PTK2 (human) = PTK2 (human) (UniProt Q05397); test: KINOMEscan competition binding; conditions: compound 10.0 µM
DAPK3 (human) = DAPK3 (human) (UniProt O43293); test: KINOMEscan competition binding; conditions: compound 10.0 µM
DAPK3 (human), sequence (O43293 whole entry, looked up): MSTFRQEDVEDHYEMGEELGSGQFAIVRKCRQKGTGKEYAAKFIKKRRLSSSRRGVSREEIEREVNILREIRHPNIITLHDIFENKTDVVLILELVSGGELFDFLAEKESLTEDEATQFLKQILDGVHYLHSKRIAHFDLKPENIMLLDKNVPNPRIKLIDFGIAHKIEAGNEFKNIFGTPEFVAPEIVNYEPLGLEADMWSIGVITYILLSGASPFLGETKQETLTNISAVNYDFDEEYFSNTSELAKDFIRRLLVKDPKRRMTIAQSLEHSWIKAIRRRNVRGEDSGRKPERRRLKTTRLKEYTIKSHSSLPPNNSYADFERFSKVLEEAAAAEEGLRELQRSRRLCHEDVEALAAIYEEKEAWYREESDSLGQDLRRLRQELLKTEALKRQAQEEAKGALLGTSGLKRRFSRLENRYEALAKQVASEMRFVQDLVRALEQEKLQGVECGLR

TTK (human) = TTK (human) (UniProt P33981); test: KINOMEscan competition binding; conditions: compound 10.0 µM
DCLK2 (human) = DCLK2 (human) (UniProt Q8N568); test: KINOMEscan competition binding; conditions: compound 10.0 µM
SLK (human) = SLK (human) (UniProt Q9H2G2); test: KINOMEscan competition binding; conditions: compound 10.0 µM
DAPK1 (human) = DAPK1 (human) (UniProt P53355); test: KINOMEscan competition binding; conditions: compound 10.0 µM
DAPK1 (human), sequence (P53355 whole entry, looked up): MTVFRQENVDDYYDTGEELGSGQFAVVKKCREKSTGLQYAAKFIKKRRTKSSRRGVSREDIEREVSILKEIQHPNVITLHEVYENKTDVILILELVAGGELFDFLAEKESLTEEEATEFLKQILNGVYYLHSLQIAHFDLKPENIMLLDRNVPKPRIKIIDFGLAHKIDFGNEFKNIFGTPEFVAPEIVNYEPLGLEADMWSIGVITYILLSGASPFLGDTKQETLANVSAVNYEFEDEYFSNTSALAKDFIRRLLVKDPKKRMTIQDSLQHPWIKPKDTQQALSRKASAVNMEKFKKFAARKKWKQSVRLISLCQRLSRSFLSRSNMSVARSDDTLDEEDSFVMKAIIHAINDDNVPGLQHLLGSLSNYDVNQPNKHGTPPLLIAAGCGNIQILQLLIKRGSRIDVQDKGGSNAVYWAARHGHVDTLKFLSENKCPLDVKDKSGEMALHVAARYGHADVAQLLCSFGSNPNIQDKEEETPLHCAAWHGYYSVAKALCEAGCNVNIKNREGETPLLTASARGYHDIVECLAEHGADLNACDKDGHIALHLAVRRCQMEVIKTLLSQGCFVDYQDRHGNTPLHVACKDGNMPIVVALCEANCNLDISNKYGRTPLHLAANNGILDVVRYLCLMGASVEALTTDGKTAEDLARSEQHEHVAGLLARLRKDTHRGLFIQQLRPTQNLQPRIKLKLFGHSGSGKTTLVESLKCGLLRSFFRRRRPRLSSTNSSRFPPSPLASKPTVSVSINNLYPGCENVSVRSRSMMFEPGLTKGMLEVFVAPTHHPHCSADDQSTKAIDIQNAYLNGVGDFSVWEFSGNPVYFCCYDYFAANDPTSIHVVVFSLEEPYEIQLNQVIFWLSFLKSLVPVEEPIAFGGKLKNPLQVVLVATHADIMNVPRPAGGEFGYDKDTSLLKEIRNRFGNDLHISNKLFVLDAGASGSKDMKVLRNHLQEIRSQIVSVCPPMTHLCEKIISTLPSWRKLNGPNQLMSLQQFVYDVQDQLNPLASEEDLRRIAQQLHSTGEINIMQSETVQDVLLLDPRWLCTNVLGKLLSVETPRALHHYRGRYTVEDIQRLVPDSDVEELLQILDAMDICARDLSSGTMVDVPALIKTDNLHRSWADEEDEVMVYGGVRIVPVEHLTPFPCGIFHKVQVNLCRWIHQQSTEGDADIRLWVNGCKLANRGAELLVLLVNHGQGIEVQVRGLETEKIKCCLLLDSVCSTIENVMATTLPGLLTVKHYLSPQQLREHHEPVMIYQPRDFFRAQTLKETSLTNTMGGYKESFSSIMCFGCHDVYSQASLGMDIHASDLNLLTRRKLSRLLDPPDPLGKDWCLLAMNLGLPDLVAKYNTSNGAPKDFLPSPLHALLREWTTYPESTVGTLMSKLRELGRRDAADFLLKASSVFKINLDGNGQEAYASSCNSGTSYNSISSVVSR

RPS6KA2 KD2 (human) = RPS6KA2 KD2 (human) (UniProt Q15349); test: KINOMEscan competition binding; conditions: compound 10.0 µM
RPS6KA2 KD2 (human), sequence (Q15349 whole entry, looked up): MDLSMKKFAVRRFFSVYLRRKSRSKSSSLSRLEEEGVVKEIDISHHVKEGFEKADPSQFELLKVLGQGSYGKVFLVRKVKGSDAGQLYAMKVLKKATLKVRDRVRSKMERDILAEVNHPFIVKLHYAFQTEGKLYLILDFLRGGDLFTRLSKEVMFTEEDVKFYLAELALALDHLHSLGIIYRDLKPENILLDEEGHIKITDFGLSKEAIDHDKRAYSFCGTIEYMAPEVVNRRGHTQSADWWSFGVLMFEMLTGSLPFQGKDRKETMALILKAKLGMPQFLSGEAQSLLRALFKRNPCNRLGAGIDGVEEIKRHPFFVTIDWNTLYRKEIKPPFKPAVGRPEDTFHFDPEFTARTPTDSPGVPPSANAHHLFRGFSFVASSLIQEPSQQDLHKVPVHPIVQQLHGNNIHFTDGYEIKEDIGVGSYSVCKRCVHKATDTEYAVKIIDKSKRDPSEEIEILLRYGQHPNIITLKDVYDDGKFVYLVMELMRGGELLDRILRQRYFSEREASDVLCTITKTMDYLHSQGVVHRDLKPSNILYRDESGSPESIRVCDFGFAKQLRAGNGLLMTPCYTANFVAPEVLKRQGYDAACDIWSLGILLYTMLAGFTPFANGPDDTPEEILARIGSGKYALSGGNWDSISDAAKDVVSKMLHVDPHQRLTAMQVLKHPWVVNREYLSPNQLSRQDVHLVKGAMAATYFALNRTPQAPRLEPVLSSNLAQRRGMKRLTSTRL

PIM2 (human) [1] = molecular target: PIM2 (human) (UniProt Q9P1W9); test: SelectScreen, TR FRET
PIM2 (human), sequence (Q9P1W9 whole entry, looked up): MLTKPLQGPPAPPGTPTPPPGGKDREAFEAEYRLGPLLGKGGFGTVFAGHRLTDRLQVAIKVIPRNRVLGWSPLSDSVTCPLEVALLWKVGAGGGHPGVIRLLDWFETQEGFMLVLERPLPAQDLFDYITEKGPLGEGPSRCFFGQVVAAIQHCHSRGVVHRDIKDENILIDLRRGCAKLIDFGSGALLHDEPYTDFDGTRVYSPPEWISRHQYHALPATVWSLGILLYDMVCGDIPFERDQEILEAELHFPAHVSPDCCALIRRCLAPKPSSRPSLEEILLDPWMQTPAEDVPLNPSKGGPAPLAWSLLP

PIM1 (human) [2] = molecular target: PIM1 (human) (UniProt P11309); test: SelectScreen, TR FRET
PIM1 (human), sequence (P11309 whole entry, looked up): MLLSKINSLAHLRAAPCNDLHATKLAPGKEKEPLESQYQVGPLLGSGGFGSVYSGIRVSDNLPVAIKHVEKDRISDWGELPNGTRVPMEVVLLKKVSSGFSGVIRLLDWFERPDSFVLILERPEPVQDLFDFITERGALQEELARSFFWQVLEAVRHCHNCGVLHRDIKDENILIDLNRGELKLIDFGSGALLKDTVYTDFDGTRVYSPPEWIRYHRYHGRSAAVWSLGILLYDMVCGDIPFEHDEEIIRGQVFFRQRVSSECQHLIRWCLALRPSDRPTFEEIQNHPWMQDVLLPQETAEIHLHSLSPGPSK

LATS2 (human) = LATS2 (human) (UniProt Q9NRM7); test: KINOMEscan competition binding; conditions: compound 10.0 µM
[3] = test system: PIK3CA (human), P42336 [E545K]; test: KINOMEscan competition binding; conditions: compound 10.0 µM
RPS6KA4 KD2 (human) = RPS6KA4 KD2 (human) (UniProt O75676); test: KINOMEscan competition binding; conditions: compound 10.0 µM
PIK3CD (human) = PIK3CD (human) (UniProt O00329); test: KINOMEscan competition binding; conditions: compound 10.0 µM
MAP4K4 (human) = MAP4K4 (human) (UniProt O95819); test: KINOMEscan competition binding; conditions: compound 10.0 µM
BTK (human) = BTK (human) (UniProt Q06187); test: KINOMEscan competition binding; conditions: compound 10.0 µM
PIK3CB (human) = PIK3CB (human) (UniProt P42338); test: KINOMEscan competition binding; conditions: compound 10.0 µM
CDK7 (human) = CDK7 (human) (UniProt P50613); test: KINOMEscan competition binding; conditions: compound 10.0 µM
CDK7 (human), sequence (P50613 whole entry, looked up): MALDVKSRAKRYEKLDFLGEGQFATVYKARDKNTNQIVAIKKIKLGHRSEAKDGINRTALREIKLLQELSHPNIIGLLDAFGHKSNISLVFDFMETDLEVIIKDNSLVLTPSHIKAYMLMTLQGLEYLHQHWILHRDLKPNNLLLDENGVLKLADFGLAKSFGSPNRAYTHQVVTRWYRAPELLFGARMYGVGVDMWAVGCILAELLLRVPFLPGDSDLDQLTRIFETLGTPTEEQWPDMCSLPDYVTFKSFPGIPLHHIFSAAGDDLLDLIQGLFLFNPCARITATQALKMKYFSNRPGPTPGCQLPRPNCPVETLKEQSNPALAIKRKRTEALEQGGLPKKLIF

PIK3CA (human) = PIK3CA (human) (UniProt P42336); test: KINOMEscan competition binding; conditions: compound 10.0 µM
HIPK1 (human) = HIPK1 (human) (UniProt Q86Z02); test: KINOMEscan competition binding; conditions: compound 10.0 µM
TAOK1 (human) = TAOK1 (human) (UniProt Q7L7X3); test: KINOMEscan competition binding; conditions: compound 10.0 µM
CSNK2A2 (human) = CSNK2A2 (human) (UniProt P19784); test: KINOMEscan competition binding; conditions: compound 10.0 µM
CSNK2A1 (human) = CSNK2A1 (human) (UniProt P68400); test: KINOMEscan competition binding; conditions: compound 10.0 µM
MINK1 (human) = MINK1 (human) (UniProt Q8N4C8); test: KINOMEscan competition binding; conditions: compound 10.0 µM
PIM2 (human) [4] = molecular target: PIM2 (human) (UniProt Q9P1W9); test: KINOMEscan competition binding; conditions: compound 10.0 µM
CDK16 (human) = CDK16 (human) (UniProt Q00536); test: KINOMEscan competition binding; conditions: compound 10.0 µM
PIM3 (human) = PIM3 (human) (UniProt Q86V86); test: KINOMEscan competition binding; conditions: compound 10.0 µM
PIM1 (human) [5] = molecular target: PIM1 (human) (UniProt P11309); test: KINOMEscan competition binding; conditions: compound 10.0 µM
PIK3CG (human) = PIK3CG (human) (UniProt P48736); test: KINOMEscan competition binding; conditions: compound 10.0 µM
MAP2K3 (human) = MAP2K3 (human) (UniProt P46734); test: KINOMEscan competition binding; conditions: compound 10.0 µM
STK17B (human) = STK17B (human) (UniProt O94768); test: KINOMEscan competition binding; conditions: compound 10.0 µM

- kinase still bound, per cent of control (DCLK1 (human)): 11%
- kinase still bound, per cent of control (INSRR (human)): 23%
- kinase still bound, per cent of control (RPS6KA1 KD2 (human)): 15%
- kinase still bound, per cent of control (STK33 (human)): 5.6%
- kinase still bound, per cent of control (PLK3 (human)): 4.1%
- kinase still bound, per cent of control (INSR (human)): 30%
- kinase still bound, per cent of control (PLK1 (human)): 2%
- kinase still bound, per cent of control (MYLK (human)): 3%
- kinase still bound, per cent of control (PTK2B (human)): 12%
- kinase still bound, per cent of control (PLK4 (human)): 8%
- kinase still bound, per cent of control (RPS6KA6 KD2 (human)): 22%
- kinase still bound, per cent of control (ALK (human)): 14%
- kinase still bound, per cent of control (DAPK2 (human)): 24%
- kinase still bound, per cent of control (GAK (human)): 2.7%
- kinase still bound, per cent of control (PTK2 (human)): 7.1%
- kinase still bound, per cent of control (DAPK3 (human)): 9.9%
- kinase still bound, per cent of control (TTK (human)): 0.85%
- kinase still bound, per cent of control (DCLK2 (human)): 31%
- kinase still bound, per cent of control (SLK (human)): 20%
- kinase still bound, per cent of control (DAPK1 (human)): 8.2%
- kinase still bound, per cent of control (RPS6KA2 KD2 (human)): 9.6%
SMILES: COc1cc(C(=O)NC2CCN(C)CC2)ccc1Nc1ncc2c(n1)N(C1CCC(O)CC1)CCC(=O)N2C (stereo not drawn)

- IC50 (PIM2 (human) [1]): 0.165 µM
- IC50 (PIM1 (human) [2]): 0.293 µM
- kinase still bound, per cent of control (LATS2 (human)): 21%
- kinase still bound, per cent of control [3]: 17%
- kinase still bound, per cent of control (RPS6KA4 KD2 (human)): 18%
- kinase still bound, per cent of control (PIK3CD (human)): 30%
- kinase still bound, per cent of control (MAP4K4 (human)): 18%
- kinase still bound, per cent of control (BTK (human)): 17%
- kinase still bound, per cent of control (PIK3CB (human)): 31%
- kinase still bound, per cent of control (CDK7 (human)): 29%
- kinase still bound, per cent of control (PIK3CA (human)): 12%
- kinase still bound, per cent of control (HIPK1 (human)): 3.4%
- kinase still bound, per cent of control (TAOK1 (human)): 12%
- kinase still bound, per cent of control (PLK4 (human)): 4.7%
- kinase still bound, per cent of control (CSNK2A2 (human)): 21%
- kinase still bound, per cent of control (CSNK2A1 (human)): 15%
- kinase still bound, per cent of control (MINK1 (human)): 32%
- kinase still bound, per cent of control (PIM2 (human) [4]): 3.3%
- kinase still bound, per cent of control (CDK16 (human)): 9.3%
- kinase still bound, per cent of control (PIM3 (human)): 2.8%
- kinase still bound, per cent of control (DAPK2 (human)): 3.4%
- kinase still bound, per cent of control (PIM1 (human) [5]): 2.4%
- kinase still bound, per cent of control (DAPK3 (human)): 8%
- kinase still bound, per cent of control (PIK3CG (human)): 10%
- kinase still bound, per cent of control (MAP2K3 (human)): 33%
- kinase still bound, per cent of control (DAPK1 (human)): 2.3%
- kinase still bound, per cent of control (STK17B (human)): 5.2%
SMILES: CS(=O)C1=NC(=O)/C(=C/c2ccc(-c3ccc(S(N)(=O)=O)cc3)o2)S1 (stereo not drawn)
